Laboratory results published in ChEMBL document CHEMBL2046394, “Isolation and characterization of α,β-unsaturated γ-lactono-hydrazides from Streptomyces sp” (J Nat Prod, 2012).
Active and inactive are the calls of the source. The rule behind the calls is not given here.

Columns and labels:
Bacillus subtilis = assay: Antibacterial activity against Bacillus subtilis ATCC 6633 by disk inhibition zone method; format: functional, organism-based
[1] = Cytotoxicity against human MDA231 cells assessed as growth inhibition after 72 hrs; format: functional, cell-based; conditions: MDA-MB-231, 72 h
Micrococcus luteus = assay: Antibacterial activity against Micrococcus luteus ATCC 10240 by disk inhibition zone method; format: functional, organism-based
Escherichia coli = assay: Antibacterial activity against Escherichia coli ATCC 25922 by disk inhibition zone method; format: functional, organism-based
Caco-2 = assay: Cytotoxicity against human Caco2 cells by MTT assay; format: functional, cell-based

Q: Which results are given for CCCC/C=C\N(NC(C)=O)C(=O)CCC1=CCOC1=O [GERALCIN B]?
A: Activity (Bacillus subtilis): inactive; IC50 [1]: 5 µM; Activity (Micrococcus luteus): inactive; Activity (Escherichia coli): inactive

Q: For O=C(O)CCC1=CCOC1=O, which Activity (Bacillus subtilis) is on record?
A: inactive

Q: And the Activity (Micrococcus luteus)?
A: inactive

Q: What about the Activity (Escherichia coli) of the same molecule?
A: inactive

Q: With COc1cc(/C=C/C(=O)N(CCc2c[nH]c3ccc(O)cc23)N(CCc2c[nH]c3ccc(O)cc23)C(=O)/C=C/c2ccc(O)c(OC)c2)ccc1O [MONTAMINE] as the molecule, how does the IC50 (Caco-2) read?
A: 43.9 µM

Q: For CCCCCCN(NC(=O)CO)C(=O)CCC1=CCOC1=O, which Activity (Bacillus subtilis) is on record?
A: inactive

Q: What about the Activity (Micrococcus luteus) of the same molecule?
A: inactive

Q: What about the Activity (Escherichia coli) of the same molecule?
A: inactive
